Reference: PMC9701179, “New tricyclic systems as photosensitizers towards triple negative breast cancer cells” (Archives of Pharmacal Research, 2022)
Where two headings read alike, the source gives them in different places.

Experiments:
[1] = system: MDA-MB-231 cells; test: MTT cytotoxicity/photocytotoxicity test on human TNBC MDA-MB-231 cells; type: cell-based; settings: for IC50: Homo sapiens
Procedure: The irradiation device used for the irradiation of cell cultures during the assays was a black box equipped with two Philips UVA lamps with an irradiance of 17 mW cm^−2 and a centered emission peak at 365 nm; UVA irradiance was measured using a Waldmann Variocontrol radiometer, equipped with a UVA sensor. The box was maintained at room temperature inside with a fan and the multiwell plates were placed onto a water-refrigerated metal block.
Human triple negative (TNBC) breast MDA-MB-231 carcinoma cells were obtained from American Type Culture Collection (ATCC, Rockville, MD, USA). Human embryonic kidney HEK293 cells were obtained from the European Collection of Cell Cultures (ECACC, Salisbury, UK). Cell lines were maintained in the logarithmic phase at 37 °C in a 5% CO2 atmosphere using the following culture media containing 10% foetal calf serum (Euroclone, Milan, Italy), antibiotics (50 units/mL penicillin and 50 μg/mL streptomycin) and 2 mM l-glutamine: (i) RPMI-1640 medium (Euroclone, Milan, Italy) for MDA-MB-231 4 cells; (ii) DMEM (Euroclone, Milan, Italy) for HEK293 cells.
Cells (5–8 × 10^3 cells/well, dependent upon the growth characteristics of the cell line) were seeded in 96-well microplates in growth medium (100 μL). After 24 h, the medium was removed and replaced with a fresh one containing the compound to be studied at the appropriate concentration. Triplicate cultures were established for each treatment. For photocytotoxicity studies, after 1 h of incubation the medium was replaced with PBS and cells were treated with 2.0 J cm^−2 of UVA light. After irradiation, PBS was replaced with complete proliferation media. For pre-irradiation studies, instead, compounds in PBS were irradiated with 2.0 J cm^−2 of UVA light and subsequently cells were treated with pre-irradiated solutions. Following 24 h, each well was treated with 10 μL of a 5 mg/mL MTT saline solution, and following 5 h of incubation, 100 μL of a sodium dodecyl sulfate (SDS) solution in HCl 0.01 M were added. After an overnight incubation, cell growth inhibition was detected by measuring the absorbance of each well at 570 nm using a Bio-Rad 680 microplate reader. Mean absorbance for each drug dose was expressed as a percentage of the control untreated well absorbance and plotted against drug concentration. IC50 values, the drug concentrations that reduce the mean absorbance at 570 nm to 50% of those in the untreated control wells, were calculated by the four-parameter logistic (4-PL) model. Evaluation was based on means from at least four independent experiments.
The new synthetized pyrrolo[1,2-h][1,7]naphthyridinones 7 and pyrido[2,3-c]pyrrolo[1,2-a]azepinones 8 were screened for their cytotoxicity (in the dark) and photocitotoxicity (upon UVA light irradiation at 2.0 J/cm^2) profile on human TNBC cells, MDA-MB-231. The cytotoxicity/photocytotoxicity parameters, expressed in terms of IC50 values obtained by MTT test after 24 h of drug-exposure, are listed in Table 2.

[2] = system: MDA-MB-231 cells; test: Intracellular ROS production (CM-H2DCFDA) under UVA; type: cell-based, human; settings: MDA-MB-231, 25 µM, 90 min, UVA 2.0 J/cm^2; antimycin 3 µM positive control
Procedure: The production of ROS was measured in MDA-MB-231 cells (10^4 per well) grown for 24 h in a 96-well plate in RPMI medium without phenol red (Merk, Germany). Cells were then washed with PBS and loaded with 10 μM 5-(and-6)-chloromethyl-2′,7′-dichlorodihydrofluorescein diacetate acetyl ester (CM–H2DCFDA) (Molecular Probes-Invitrogen, Eugene, OR) for 45 min, in the dark. Afterwards, cells were washed with PBS and incubated with tested compounds (25 µM) for 90 min and after that exposed to UVA light (2.0 J/cm^2). Fluorescence increase was estimated utilizing the wavelengths of 485 nm (excitation) and 527 nm (emission) in a VICTOR X3 (PerkinElmer, USA) plate reader. Antimycin (3 μM, Merk), a potent inhibitor of Complex III in the electron transport chain, was used as positive control.
ROS production under light (UVA, 2.0 J/cm^2) was evaluated in MDA-MB-231 cell samples treated with increasing concentrations of tested compounds or antimycin, a potent inhibitor of Complex III of mitochondria electron chain, used as a positive control under the same experimental conditions (Fig. 4).
Fig. 4 Cellular ROS production (A) and total thiol redox state (B). A Effect of UVA activated tested compounds (25 µM) or antimycin (3 µM) on hydrogen peroxide formation in MDA-MB-231 cancer cells. B Sulfhydryl content in MDA-MB-231 cancer cells incubated for 24 h with UVA activated tested compounds. The sulfhydryl group amount was determined by the DTNB assay. Error bars indicate S.D

[3] = system: MDA-MB-231 cells; test: Mitochondrial membrane potential (Mito-ID kit); type: cell-based, human; settings: MDA-MB-231, UVA 2.0 J/cm^2; CCCP positive control
Procedure: The ΔΨ was assayed using the Mito-ID® Membrane Potential Kit according to the manufacturer’s instructions (Enzo Life Sciences, Farmingdale, NY, USA) as previously described. Briefly, MDA-MB-231 cells (8 × 10^3 per well) were seeded in 96-well plates; after 24 h, cells were washed with PBS and loaded with Mito-ID Detection Reagent for 30 min at 37 °C in the dark. Afterwards, cells were incubated with increasing concentrations of tested compounds for 90 min and after that exposed to UVA light (2.0 J/cm^2). CCCP (Carbonyl cyanide 3-chlorophenyl-hydrazone) was used as positive control. Fluorescence intensity was estimated using a VICTOR X3 (PerkinElmer, USA) plate reader at 490 (excitation) and 590 nm (emission).
Induction of ROS production can in turn prompt the collapse of mitochondrial membrane potential as well as loss of mitochondrial integrity and functioning. […] MDA-MB-231 TNBC cells were treated with tested compounds upon UVA irradiation and the percentage of cells with hypopolarized mitochondrial membrane potential was determined fluorometrically by means of the Mito-ID® Membrane Potential Kit.
Fig. 5 Effects on mitochondrial membrane potential (A) and cell death induction (B) in human breast MDA-MB-231 cancer cells. A Cells were treated with 7h and 8e and stained with TMRM (10 nM). Fluorescence was estimated at 490 nm (excitation) and 590 nm (emission). Data are the means of five independent experiments. Error bars indicate S.D. * P < 0.05. B Cells were treated with concentrations of 7h and 8e equal to IC50 for 24 h and stained with the fluorescent dyes Hoechst 33342 and PI

[4] = MDA-MB-231, in the dark, 1 h pre-treatment, recovered for total 24 h, read-out: Dark IC50 (µM) ± S.D
[5] = light or radiation study, MDA-MB-231, 1 h pre-treatment, UVA 2.0 J/cm^2, recovered for total 24 h, read-out: UVA (2.0 J/cm^2) IC50 (µM) ± S.D

Row | Structure (SMILES) | IC50 [1, 4] [µM] | IC50 [1, 5] [µM] | UVA (2.0 J/cm^2) IC50 (µM) ± S.D ([1]; MDA-MB-231, 1 h pre-treatment, UVA 2.0 J/cm^2, recovered for total 24 h) | melting point [°C] | Cellular ROS production (hydrogen peroxide formation) [2] | Cells with depolarized mitochondria (mitochondrial membrane potential) [3]
1 | CC(C)OC(=O)C1(Br)C=CC2=C3NC(=O)C(S(=O)(=O)c4ccccc4)C=C3CCCN21 (stereo not drawn) [Compound 8h, Propan-2-yl 3-(benzenesulfonyl)-9-bromo-2-oxo-1,5,6,7-tetrahydro-2H-pyrido[2,3-c]pyrrolo[1,2-a]azepine-9-carboxylate] | > 50 | > 50 | completely ineffective in inhibiting cancer cell proliferation upon irradiation | 167 to 168 | – | –
2 | CC(C)OC(=O)c1ccc2n1CCCc1cc(S(=O)(=O)c3ccccc3)c(=O)n(C)c1-2 [Compound 8d, Propan-2-yl 3-(benzenesulfonyl)-1-methyl-2-oxo-1,5,6,7-tetrahydro-2H-pyrido[2,3-c]pyrrolo[1,2-a]azepine-9-carboxylate] | > 50 | > 50 | – | – | hardly effective in inducing any ROS basal level production increase | did not induce a substantial change in mitochondrial membrane potential
3 | CCOC(=O)c1ccc2n1CCCc1cc(S(=O)(=O)c3ccccc3)c(=O)n(C)c1-2 [Compound 8c, Ethyl 3-(benzenesulfonyl)-1-methyl-2-oxo-1,5,6,7-tetrahydro-2H-pyrido[2,3-c]pyrrolo[1,2-a]azepine-9-carboxylate] | > 50 | 24.9 ± 2.8 | – | – | – | –
4 | CC(C)OC(=O)c1ccc2n1CCCc1cc(S(=O)(=O)c3ccccc3)c(=O)[nH]c1-2 [Compound 8b, Propan-2-yl 3-(benzenesulfonyl)-2-oxo-1,5,6,7-tetrahydro-2H-pyrido[2,3-c]pyrrolo[1,2-a]azepine-9-carboxylate] | > 50 | > 50 | – | – | – | –
5 | COc1nc2c(cc1S(=O)(=O)c1ccccc1)CCn1cccc1-2 [Compound 7g, 2-methoxy-3-(phenylsulfonyl)-5,6-dihydropyrrolo[1,2-h][1,7]naphthyridine] | > 50 | > 50 | – | 210 to 211 | – | –
6 | Cn1c2c(cc(S(=O)(=O)c3ccccc3)c1=O)CCn1cccc1-2 [Compound 7d, 1-Methyl-3-(benzenesulfonyl)-5,6-dihydropyrrolo[1,2-h][1,7]naphthyridin-2(1H)-one] | > 50 | > 50 | – | 268 to 269 | – | –
7 | CC(C)OC(=O)C1(Br)C=CC2=C3NC(=O)C(S(=O)(=O)c4ccccc4)C=C3CCN21 (stereo not drawn) [Compound 7k, Propan-2-yl 3-(benzenesulfonyl)-8-bromo-2-oxo-1,2,5,6-tetrahydropyrrolo[1,2-h][1,7]naphthyridine-8-carboxylate] | – | – | – | 174 to 175 | – | –
8 | COc1nc2c(cc1S(=O)(=O)c1ccccc1)CCCn1c(C(=O)OC(C)C)ccc1-2 [Compound 8f, Propan-2-yl 3-(benzenesulfonyl)-2-methoxy-6,7-dihydro-5H-pyrido[2,3-c]pyrrolo[1,2-a]azepine-9-carboxylate] | > 50 | 23.7 ± 1.5 | – | – | – | –
9 | CC(C)OC(=O)c1ccc2n1CCc1cc(S(=O)(=O)c3ccccc3)c(=O)[nH]c1-2 [Compound 7c, Propan-2-yl 3-(benzenesulfonyl)-2-oxo-1,2,5,6-tetrahydropyrrolo[1,2-h][1,7]naphthyridine-8-carboxylate] | > 50 | > 50 | – | – | – | –
10 | CCOC(=O)C1(Br)C=CC2=C3NC(=O)C(S(=O)(=O)c4ccccc4)C=C3CCCN21 (stereo not drawn) [Compound 8g, Ethyl 3-(benzenesulfonyl)-9-bromo-2-oxo-1,5,6,7-tetrahydro-2H-pyrido[2,3-c]pyrrolo[1,2-a]azepine-9-carboxylate] | – | – | – | 172 to 173 | – | –
11 | CC(C)OC(=O)c1ccc2n1CCc1cc(S(=O)(=O)c3ccccc3)c(=O)n(C)c1-2 [Compound 7f, Propan-2-yl 3-(benzenesulfonyl)-1-methyl-2-oxo-1,2,5,6-tetrahydropyrrolo[1,2-h][1,7]naphthyridine-8-carboxylate] | > 50 | > 50 | – | – | – | –
12 | COc1nc2c(cc1S(=O)(=O)c1ccccc1)CCn1c(C(=O)OC(C)C)ccc1-2 [Compound 7i, Propan-2-yl 3-(benzenesulfonyl)-2-methoxy-5,6-dihydropyrrolo[1,2-h][1,7]naphthyridine-8-carboxylate] | > 50 | 7.9 ± 0.5 | – | – | – | –
13 | CCOC(=O)C1(Br)C=CC2=C3NC(=O)C(S(=O)(=O)c4ccccc4)C=C3CCN21 (stereo not drawn) [Compound 7j, Ethyl 3-(benzenesulfonyl)-8-bromo-2-oxo-1,2,5,6-tetrahydropyrrolo[1,2-h][1,7]naphthyridine-8-carboxylate] | – | – | – | 196 to 197 | – | –
14 | CCOC(=O)c1ccc2n1CCc1cc(S(=O)(=O)c3ccccc3)c(=O)[nH]c1-2 [Compound 7b, Ethyl 3-(benzenesulfonyl)-2-oxo-1,2,5,6-tetrahydropyrrolo[1,2-h][1,7]naphthyridine-8-carboxylate] | > 50 | 21 ± 0.4 | – | – | – | –
15 | O=c1[nH]c2c(cc1S(=O)(=O)c1ccccc1)CCn1cccc1-2 [Compound 7a, 3-(benzenesulfonyl)-5,6-dihydropyrrolo[1,2-h][1,7]naphthyridin-2(1H)-one] | > 50 | > 50 | – | 317 to 318 | – | –
16 | CCOC(=O)c1ccc2n1CCCc1cc(S(=O)(=O)c3ccccc3)c(=O)[nH]c1-2 [Compound 8a, Ethyl 3-(benzenesulfonyl)-2-oxo-1,5,6,7-tetrahydro-2H-pyrido[2,3-c]pyrrolo[1,2-a]azepine-9-carboxylate] | > 50 | > 50 | – | – | – | –
